Source: article PMC8321398, “The discovery of a novel series of compounds with single-dose efficacy against juvenile and adult Schistosoma species” (PLoS Neglected Tropical Diseases, 2021)
In brackets after ≈: the same amount, converted by molar mass. Read-outs that look alike come from different tables or passages of the source.

Columns and labels:
Adult S. mansoni = assay: In vitro adult S. mansoni worm assay; type: cell-based; conditions: Schistosoma mansoni, 120 h incubation
Source text: (§1) The Puerto Rican strain of S. mansoni was maintained in Biomphalaria glabrata and CD1 mice. Oncomelania hupensis (hupensis) infected with S. japonicum (Chinese strain) and Bulinus truncatus (truncatus) infected with Egyptian strain S. haematobium were obtained from BEI Resources, NIAID, NIH. Infection of mice for worm recovery was as previously described except that, whereas cercariae of S. mansoni and S. haematobium were obtained by shedding from infected snails under lights, cercariae of S. japonicum were obtained by gently crushing the snails. Furthermore, adult S. haematobium were recovered after 12 weeks following mouse infection.
(§2) In vitro efficacy was carried out as previously described. In brief, worms were recovered from infected mice by portal perfusion 3 weeks (for juveniles) or 6 weeks (for adults) post-infection using warm perfusion medium (Dulbecco’s Modified Eagle’s Medium [DMEM], 2mM L-glutamine, 100 Units/ml penicillin, 100μg/ml streptomycin, 20mM Hepes, 10 Units/ml heparin [Sigma, UK]). Worms were washed free of red blood cells using the perfusion medium, and finally suspended in complete medium (cDMEM: DMEM, 2mM L-glutamine, 100 Units/ml penicillin, 100μg/ml streptomycin, 10% FCS). The juvenile assays were carried out in 96-well plates, each well containing 6–8 worms in 200 μL cDMEM. The adult worm assay was in 24-well plates, each well containing 3 worm pairs in 1mL cDMEM. Both the juvenile and adult worm cultures were kept at 37° C, in an atmosphere of 5% CO2. Drug effects were determined on day 5 following drug treatment by assessing the viability of individual worms as described in [14].

Mouse pharmacokinetics = type: in vivo; conditions: for Clobs / AUC(0-inf) / Vd / half-life: 0.5 mg/kg iv, in a mixture of 5 compounds; for AUC(0-inf) / Vd / bioavailability / half-life: male, Swiss albino, plasma; for Vd: read-out: Vss; for bioavailability: 2.5 mg/kg oral, mixture of 5 compounds, calculated values > 100% shown as 100; for half-life: iv, 0.5 mg/kg, sampled over 24 h
Juvenile S. mansoni = assay: In vitro juvenile (3 week old) S. mansoni worm assay; type: cell-based; conditions: Schistosoma mansoni; Table 2; in vitro, 120 h incubation
Source text: as §1, §2

HepG2 cells = assay: Cytotoxicity, HepG2 cells with MTT; type: cell-based, human; conditions: Table 2; hepG2 cell line, 72 h incubation
Method: Activity against mammalian cells was determined using either of two standard assays. The first of these used MRC-5 cells with Alamar blue staining as previously described. The second used HepG2 cells monitored using 3-(4,5-dimethylthiazol-2-yl)-2,5-diphenyltetrazolium bromide (MTT) as previously described.

[1] = Metabolic stability in human hepatocytes; type: in vitro ADME; conditions: hepatocytes (suspension), pH 7.4, 90 min incubation, read-out: Human hepatocyte % remaining at 90 min
Method: (§3) 100 μM compound stock solution was prepared from 5 μL of 4 mM stock in DMSO + 195 μL MeCN. Working solution (2 μM compound) was prepared using 10 μL of 100 μM stock + 490 μL buffer pH 7.4 (KHB supplemented with CaCl2, NaHCO3, HEPES, fructose, glycine; pH 7.4).
(§4) Working solution (25 μL, 2 μM) was added in duplicate to wells in a 0.5 mL per well, 96 well plate which was preincubated to reach 37°C. Hepatocyte suspension (25 μL) was added to each plate, and the plate incubated (37°C, 95% relative humidity with 5% CO2 supply) under gentle mixing (Thermomixer @300 rpm). After designated time periods, ice-cold MeCN (250 μL) was added with a suitable standard. For T = 0 min, ice-cold MeCN (250 μL) with suitable standard was added to the working solution (2 μM) and hepatocyte suspension (25 μL) added. The plates for each time point were shaken, sonicated for 5 mins and kept at 4°C until the final plate was processed. The plates were centrifuged at 4,000 rpm for 20 min, supernatant (110 μL) was mixed with water (110 μL) and the samples analysed using LC-MS/MS.

Kinetic solubility = type: physicochemical
Source text: Table 4 in vitro, physicochemical and in vivo properties of compounds pictured in Fig 10. | column: Measured physicochemical properties / Kinetic solubility, pH 7.4 (uM); Measured physicochemical properties / Kinetic solubility, FaSSIF (uM); Measured physicochemical properties / Kinetic solubility, FeSSIF (uM)

[2] = system: S. mansoni juvenile worms; assay: In vivo efficacy, mouse model of juvenile (21-day old) S. mansoni infection; conditions: mouse, Juvenile infection, oral 50 mg/kg, formulation corn oil
Method: (§5) Prior to in vivo efficacy experiments, a single animal was given a dose of drug (using the same formulation) that was twice as large as that planned for use in the efficacy experiments and was observed periodically for adverse clinical signs for 24h by trained veterinarians. Adverse clinical signs checked include postural defect, vocalization, oculo-nasal discharge, hypersalivation, change in activity, abnormal gait, respiration and pulse, piloerection, loss of pupillary reflex, eyelid reflex, chromodacryorrhea, reaction to handling, tremor, convulsions, prostration, diarrhoea, cachexia, emaciation. […] In vivo efficacy was assessed in female CD1 mice using methods based on those previously described. Mice were infected subcutaneously with 150 cercariae. Test compounds were suspended in 7% Tween-80 / 3% Ethanol / double distilled water and drug dispersal was facilitated by vortexing and using a sonicating water bath (Formulation “Aqueous”). Alternatively, drugs were first dissolved in DMSO, then diluted with corn oil to give a 1:19 DMSO:corn oil solution/suspension of test compound (Formulation “Corn oil”). Dosing was by oral gavage. Mice in the negative control groups were given the drug suspension vehicle only. Positive controls for treatment of adult, day 42 old, infections were treated with PZQ and those for juvenile, day 21 old, infections with artemether, which unlike PZQ is effective against the juvenile worm infections in mice. During and following treatment, mice were closely observed for any ill effects by staff experienced in animal handling. This involved individuals who were blinded to the treatment groups. Effects they were trained to look for included hunching, immobility, piloerection, subdued behaviour, diarrhoea and loss of body condition. None were seen. Worms were recovered by portal perfusion with citrate saline 8–14 days post treatment and counted. Differences between groups relative to the non-drug treated controls were assessed for statistical significance by Student’s unpaired t-test using GraphPad Prism Software. P values are presented as follows:- ns–P > 0.05 (not significant), * P ≤ 0.05, ** P ≤ 0.01, *** P ≤ 0.001, **** P ≤ 0.0001.
(§6) For pharmacokinetic analysis during the in vivo efficacy experiments individual animals were only sampled once. Samples were taken from one animal in each experimental group at each of 1, 4, 8 h and samples from two animals in each group were taken at 24 h.

[3] = as above; conditions: female, CD1, plasma; mouse, Juvenile infection, oral 50 mg/kg, formulation corn oil; read-out: Plasma conc @24 h (efficacy experiment)
Method: as §5, §6

S. japonicum adult = assay: In vitro adult S. japonicum worm assay; type: cell-based
Source text: as §1, §2

[4] = Metabolic stability in mouse hepatocytes; type: in vitro ADME; conditions: hepatocytes (suspension), pH 7.4, 90 min incubation, read-out: Mouse hepatocyte % remaining at 90 min
Method: as §3, §4

[5] = Plasma protein binding in mouse plasma at 10 uM, equilibrium dialysis; type: in vitro ADME
Method: (§7) Each experiment was performed in duplicate for the compound being tested. A working solution of compound was prepared from 10 μL of 10 mM solution in DMSO + 190 μL 40:60 MeCN:Water. A Total solution was prepared from 12 μL of working solution + 588 μL plasma (compound conc: 10 μM, DMSO: 0.1%, ACN:0.76%). In an equilibrium dialysis chamber, Total solution (200 μL) was added to the plasma chamber and PBS pH 7.4 (350 μL) was added to the buffer chamber. The chamber was then incubated at 37°C for 6 h with constant shaking at 400 rpm (Thermomixer comfort, Eppendorf). Aliquots were removed from both plasma and buffer chambers and the following test samples prepared: Blank: blank Plasma (20 μL) + blank buffer (60 μL), Buffer: blank plasma (20 μL) + test buffer (60 μL), Plasma: test plasma (20 μL) + blank buffer (60 μL), Total: total sample (20 μL) + blank buffer (60 μL). Ice-cold acetonitrile (160 μL), containing a suitable standard was added to all samples, they were shaken vigorously and centrifuged at 4,000 rpm for 20 min at 15°C. Supernatant (110 μL) from each sample was diluted with water (110 μL) and the sample analysed by LC-MS/MS.
(§8) % Free = 100 × (AREA in buffer × dilution factor)/(AREA in Plasma × dilution factor)
(§9) % Recovery = 100 ×[(Avg AREA in buffer × dilution factor) + (Avg AREA in Plasma × dilution factor)] / (Avg AREA in Total × dilution factor)

[6] = Plasma protein binding in human plasma at 10 uM, equilibrium dialysis; type: in vitro ADME
Method: as §7, §8, §9

[7] = system: S. mansoni juvenile worms; conditions: cited from earlier work
S. mansoni = system: S. mansoni; design: method as in PMID 28126024; conditions: 40 mg/kg; cited from earlier work
S. japonicum = system: S. japonicum; design: method as in PMID 28126024; conditions: 40 mg/kg; cited from earlier work
S. haematobium = system: S. haematobium; design: method as in PMID 28126024; conditions: 40 mg/kg; cited from earlier work
S. mansoni infections = system: S. mansoni infections; design: method as in PMID 29126136; conditions: cited from earlier work
[8] = Table 2, in vitro, read-out: Adult S. mansoni EC50
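Wherever Clobs is given: three mice per experiment, dosed in 10% DMSO with 50 mM Na2HPO4 buffer plus Tween-80, plasma levels quantified by LC-MS against a calibration line prepared in blank matrix.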
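Wherever F is given: three mice per experiment, dosed in 10% DMSO with 50 mM Na2HPO4 buffer plus Tween-80, plasma levels quantified by LC-MS against a calibration line prepared in blank matrix.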
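Wherever Vss is given: three mice per experiment, dosed in 10% DMSO with 50 mM Na2HPO4 buffer plus Tween-80, plasma levels quantified by LC-MS against a calibration line prepared in blank matrix.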

SMILES	EC50 (Adult S. mansoni; [8]) [nM]	Clobs (Mouse pharmacokinetics) [mL/min/kg]	AUC(0-inf) (Mouse pharmacokinetics) [ng·h/mL]	Vd (Mouse pharmacokinetics) [L/kg]	bioavailability (Mouse pharmacokinetics) [%]	half-life (Mouse pharmacokinetics) [h]	EC50 (Juvenile S. mansoni) [nM]	Cytotox TC50 (HepG2 cells)	remaining at 1.5 h, 1 µM [1] [%]	remaining at 1.5 h, 1 µM [4] [%]	also measured
CC(C)c1nn2cnc(-c3ccc(F)c(C(F)(F)F)c3)cc2c1-c1ccc2[nH]ncc2c1F [LSHTM-3644]	40	6.33	1330	2.4	76	6.3	60				
CC(C)c1cc(-c2cn3c(-c4ccc5[nH]ncc5c4F)c(C(F)(F)F)nc3cn2)ccc1F [LSHTM-3661]	2.3	31.3	300	5.6	57.1	4.5	2.7	17,000 nM	45	78	EC50 (Adult S. mansoni; Table 3, S. mansoni, read-out: Sm adult EC50): 2.3 nM; solubility kinetic at 24 h (Kinetic solubility; pH 7.4, read-out: Kinetic solubility, pH 7.4): 0.04 µM (≈ 0.0183 µg/mL); Worms remaining [2]: 0%; concentration at 24 h [3]: 178 ng/mL; EC50 (S. japonicum adult; Schistosoma japonicum, S. japonicum, 120 h incubation, read-out: Sj adult EC50): 24.8 nM; Potency ratio Sj/Sm (S. japonicum adult; adult EC50 S. japonicum / S. mansoni): 10.9
CC(C)Oc1cc(-c2cn3c(-c4ccc5[nH]ncc5c4F)c(C(F)(F)F)nc3cn2)ccc1F [LSHTM-3690]	9	24.5	300	5	100	4.6	11.1	9,250 nM	79	31	Mouse plasma protein %binding [5]: 99.8775%; recovery at 6 h, 10 µM ([5]; mouse, mouse plasma, pH 7.4): 93.9%; Human plasma protein %binding [6]: 99.925%; recovery at 6 h, 10 µM ([6]; human, human plasma, pH 7.4): 89%; solubility kinetic at 24 h (Kinetic solubility; FaSSIF, pH 6.5, read-out: Kinetic solubility, FaSSIF): 188 µM (≈ 89 µg/mL); solubility kinetic at 24 h (Kinetic solubility; FeSSIF, pH 5, read-out: Kinetic solubility, FeSSIF): 196 µM (≈ 92.8 µg/mL)
O=C(C1CCCCC1)N1CC(=O)N2CCc3ccccc3C2C1 (stereo not drawn) [PZQ, Praziquantel]											activity against the juvenile stages ([7]; both in vivo and in vitro): relatively ineffective; cure rate in children (S. mansoni): 76.4%; cure rate in children (S. japonicum): 95.3%; cure rate in children (S. haematobium): 73.6%
CO[C@H]1O[C@@H]2O[C@@]3(C)CC[C@H]4[C@H](C)CC[C@@H]([C@H]1C)[C@@]24OO3 [artemether]											efficacy against the juvenile worm infections in mice ([7]; mice): effective
CC(C)NCC1CCc2cc(CO)c([N+](=O)[O-])cc2N1 (stereo not drawn) [oxamniquine]											efficacy against S. mansoni infections (S. mansoni infections): effective
